What all share (assay type): cell-based
Assay [1] deals with T1, Glucagon-like peptide 2 receptor (Homo sapiens, UniProt O95838).
T1 sequence (O95838 whole entry): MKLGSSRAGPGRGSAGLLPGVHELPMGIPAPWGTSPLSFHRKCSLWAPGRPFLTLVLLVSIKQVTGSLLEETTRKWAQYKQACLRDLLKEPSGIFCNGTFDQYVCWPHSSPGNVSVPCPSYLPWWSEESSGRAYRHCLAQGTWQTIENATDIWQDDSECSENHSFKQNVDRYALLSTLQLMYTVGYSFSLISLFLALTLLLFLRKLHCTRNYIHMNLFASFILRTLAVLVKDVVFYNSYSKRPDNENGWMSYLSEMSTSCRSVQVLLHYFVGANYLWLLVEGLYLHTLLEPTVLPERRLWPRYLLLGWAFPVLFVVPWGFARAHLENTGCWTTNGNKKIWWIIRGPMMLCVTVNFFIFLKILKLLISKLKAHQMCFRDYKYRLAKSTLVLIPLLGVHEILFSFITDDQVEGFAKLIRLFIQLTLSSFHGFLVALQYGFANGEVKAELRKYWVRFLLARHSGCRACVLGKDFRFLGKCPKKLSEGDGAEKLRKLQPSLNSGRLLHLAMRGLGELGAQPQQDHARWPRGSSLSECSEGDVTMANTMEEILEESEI
Kind of assay: Agonist activity at human GLP2R expressed in HEK293 cells after 5 hrs by luciferase reporter gene assay. On the technique in general: In a reporter assay the amount or activity of a reporter protein is the signal.

For assay [2], the target named is Glucagon-like peptide 1 receptor (Homo sapiens, UniProt P43220). Kind of assay: Agonist activity at human GLP1R expressed in HEK293 cells after 5 hrs by luciferase reporter gene assay.
Chain of Glucagon-like peptide 1 receptor (P43220 whole entry): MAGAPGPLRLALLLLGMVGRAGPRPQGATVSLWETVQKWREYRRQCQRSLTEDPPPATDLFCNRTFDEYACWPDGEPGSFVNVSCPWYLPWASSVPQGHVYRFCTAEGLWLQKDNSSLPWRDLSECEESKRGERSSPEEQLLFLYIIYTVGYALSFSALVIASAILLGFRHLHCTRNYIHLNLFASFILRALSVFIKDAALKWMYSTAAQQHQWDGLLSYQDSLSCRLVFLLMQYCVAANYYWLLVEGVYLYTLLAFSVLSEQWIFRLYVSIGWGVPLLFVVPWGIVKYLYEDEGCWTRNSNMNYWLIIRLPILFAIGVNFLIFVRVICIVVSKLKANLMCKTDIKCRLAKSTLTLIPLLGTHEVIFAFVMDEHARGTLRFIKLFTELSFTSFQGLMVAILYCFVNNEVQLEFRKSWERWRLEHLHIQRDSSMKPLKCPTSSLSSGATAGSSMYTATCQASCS
Assay [3] concerns the target T2, Glucagon-like peptide 2 receptor (Homo sapiens) (UniProt O95838).
T2 sequence (whole entry): T1 sequence (O95838 whole entry)
Kind of assay: Potency index, ratio of compound EC50 to compound 2 EC50 for human GLP2R expressed in HEK293 cells.

The subject of assay [4] is HEK293. The assay is described as follows: Selectivity ratio of EC50 for human GLP1R expressed in HEK293 cells to EC50 for human GLP2R expressed in HEK293.
In assay [5] the target is Glucagon receptor (Homo sapiens) (UniProt P47871). The assay is described as follows: Agonist activity at human GCGR expressed in HEK293 cells after 5 hrs by luciferase reporter gene assay.
Chain of Glucagon receptor (Homo sapiens) (P47871 whole entry): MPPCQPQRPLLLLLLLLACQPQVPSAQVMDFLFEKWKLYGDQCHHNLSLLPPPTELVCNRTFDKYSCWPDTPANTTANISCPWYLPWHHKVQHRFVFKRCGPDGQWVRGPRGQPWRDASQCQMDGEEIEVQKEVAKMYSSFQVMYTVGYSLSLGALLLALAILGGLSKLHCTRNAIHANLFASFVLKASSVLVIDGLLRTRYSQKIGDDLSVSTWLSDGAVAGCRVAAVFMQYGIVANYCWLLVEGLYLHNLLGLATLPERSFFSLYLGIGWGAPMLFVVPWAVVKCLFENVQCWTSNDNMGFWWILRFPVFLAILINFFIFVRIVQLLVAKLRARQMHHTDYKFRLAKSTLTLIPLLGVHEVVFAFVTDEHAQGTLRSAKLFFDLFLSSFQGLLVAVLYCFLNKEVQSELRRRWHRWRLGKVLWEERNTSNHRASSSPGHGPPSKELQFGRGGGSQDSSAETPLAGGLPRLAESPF

Activity calls are given as the source filed them. No cut-off for these calls is given here. Where only a bound is given, the exact number is not on record here.

By EC50 is commonly meant the concentration that produces a half-maximal response. Read a high EC50 as lower potency in that assay. Turning to `CCCCC(NC(=O)[C@H](CCC(=O)O)NC(=O)[C@H](CC(=O)O)NC(=O)[C@H](CO)NC(=O)[C@H](Cc1ccccc1)NC(=O)[C@H](CO)NC(=O)CNC(=O)[C@H](CC(=O)O)NC(=O)CNC(=O)[C@@H](N)Cc1cnc[nH]1)C(=O)N[C@@H](CC(N)=O)C(=O)N[C@@H](C(=O)N[C@H](C(=O)N[C@@H](CC(C)C)C(=O)N[C@@H](CC(=O)O)C(=O)N[C@@H](CC(N)=O)C(=O)N[C@@H](CC(C)C)C(=O)N[C@@H](C)C(=O)N[C@@H](C)C(=O)N[C@@H](CCCNC(=N)N)C(=O)N[C@@H](CC(=O)O)C(=O)N[C@@H](Cc1ccccc1)C(=O)N[C@H](C(=O)N[C@@H](CC(N)=O)C(=O)N[C@@H](Cc1c[nH]c2ccccc12)C(=O)N[C@@H](CC(C)C)C(=O)N[C@H](C(=O)N[C@@H](CCC(N)=O)C(=O)N[C@H](C(=O)N[C@@H](CCCCN)C(N)=O)[C@@H](C)O)[C@@H](C)CC)[C@@H](C)CC)[C@@H](C)CC)[C@H](C)O` (stereo not given in full), the results for the EC50 in assay [1] and in assay [2] were 1.5 nM and more than 1000 nM, respectively. Further, the figures for the Ratio EC50 in assay [3] and in assay [4] were 6.8 and more than 660, respectively. Besides, the outcome in assay [5] was inactive.
Turning to `CCCCC(NC(=O)[C@H](CCC(=O)O)NC(=O)[C@H](CC(=O)O)NC(=O)[C@H](CO)NC(=O)[C@H](Cc1ccccc1)NC(=O)[C@H](CO)NC(=O)CNC(=O)[C@H](CC(=O)O)NC(=O)CNC(=O)[C@@H](N)Cc1cnc[nH]1)C(=O)N[C@@H](CC(N)=O)C(=O)N[C@H](C(=O)N[C@H](C(=O)N[C@@H](CC(C)C)C(=O)N[C@@H](CC(=O)O)C(=O)N[C@@H](CC(N)=O)C(=O)N[C@@H](CC(C)C)C(=O)N[C@@H](C)C(=O)N[C@@H](C)C(=O)N[C@@H](CCCNC(=N)N)C(=O)N[C@@H](CC(=O)O)C(=O)N[C@@H](Cc1ccccc1)C(=O)N[C@H](C(=O)N[C@@H](CC(N)=O)C(=O)N[C@@H](Cc1c[nH]c2ccccc12)C(=O)N[C@@H](CC(C)C)C(=O)N[C@H](C(=O)N[C@@H](CCC(N)=O)C(=O)N[C@@H](C(=O)N[C@@H](CCCCN)C(N)=O)[C@H](C)O)[C@@H](C)CC)[C@@H](C)CC)[C@@H](C)CC)[C@@H](C)O` (stereo not given in full), the EC50 in assay [1] is 4.5 nM; in assay [2], more than 1000 nM. Further, the Ratio EC50 in assay [3] is 20; in assay [4] it was more than 220. In addition, in assay [5], the result was inactive.
Regarding `CCCCC(NC(=O)[C@H](CCC(=O)O)NC(=O)[C@H](CC(=O)O)NC(=O)[C@H](CO)NC(=O)[C@H](Cc1ccccc1)NC(=O)[C@H](CO)NC(=O)CNC(=O)[C@H](CC(=O)O)NC(=O)CNC(=O)[C@@H](N)Cc1cnc[nH]1)C(=O)N[C@H](CC(N)=O)C(=O)N[C@H](C(=O)N[C@H](C(=O)N[C@@H](CC(C)C)C(=O)N[C@@H](CC(=O)O)C(=O)N[C@@H](CC(N)=O)C(=O)N[C@@H](CC(C)C)C(=O)N[C@@H](C)C(=O)N[C@@H](C)C(=O)N[C@@H](CCCNC(=N)N)C(=O)N[C@@H](CC(=O)O)C(=O)N[C@@H](Cc1ccccc1)C(=O)N[C@H](C(=O)N[C@@H](CC(N)=O)C(=O)N[C@@H](Cc1c[nH]c2ccccc12)C(=O)N[C@@H](CC(C)C)C(=O)N[C@H](C(=O)N[C@@H](CCC(N)=O)C(=O)N[C@H](C(=O)N[C@@H](CCCCN)C(N)=O)[C@@H](C)O)[C@@H](C)CC)[C@@H](C)CC)[C@@H](C)CC)[C@@H](C)O` (stereo not given in full), the EC50 in assay [1] was 0.16 nM; in assay [2], more than 1000 nM. Besides, the Ratio EC50 in assay [3] was 0.73; in assay [4], more than 6200. Besides, the result in assay [5] was inactive.
With `CCCCC(NC(=O)[C@H](CCC(=O)O)NC(=O)[C@H](CC(=O)O)NC(=O)[C@H](CO)NC(=O)[C@H](Cc1ccccc1)NC(=O)[C@H](CO)NC(=O)CNC(=O)[C@H](CC(=O)O)NC(=O)CNC(=O)[C@@H](N)Cc1cnc[nH]1)C(=O)N[C@@H](CC(N)=O)C(=O)N[C@H](C(=O)N[C@H](C(=O)N[C@@H](CC(C)C)C(=O)N[C@@H](CC(=O)O)C(=O)N[C@H](CC(N)=O)C(=O)N[C@@H](CC(C)C)C(=O)N[C@@H](C)C(=O)N[C@@H](C)C(=O)N[C@@H](CCCNC(=N)N)C(=O)N[C@@H](CC(=O)O)C(=O)N[C@@H](Cc1ccccc1)C(=O)N[C@H](C(=O)N[C@@H](CC(N)=O)C(=O)N[C@@H](Cc1c[nH]c2ccccc12)C(=O)N[C@@H](CC(C)C)C(=O)N[C@H](C(=O)N[C@@H](CCC(N)=O)C(=O)N[C@H](C(=O)N[C@@H](CCCCN)C(N)=O)[C@@H](C)O)[C@@H](C)CC)[C@@H](C)CC)[C@@H](C)CC)[C@@H](C)O` (stereo not given in full), the values for the EC50 in assay [1] and in assay [2] were 1.5 nM and more than 1000 nM, respectively. For the same compound, the Ratio EC50 in assay [3] was 6.8; in assay [4] it was more than 660. Besides, in assay [5], the outcome was inactive.
Regarding `CCCCC(NC(=O)[C@H](CCC(=O)O)NC(=O)[C@H](CC(=O)O)NC(=O)[C@H](CO)NC(=O)[C@H](Cc1ccccc1)NC(=O)[C@H](CO)NC(=O)CNC(=O)[C@H](CC(=O)O)NC(=O)CNC(=O)[C@@H](N)Cc1cnc[nH]1)C(=O)N[C@@H](CC(N)=O)C(=O)N[C@H](C(=O)N[C@H](C(=O)N[C@H](CC(C)C)C(=O)N[C@@H](CC(=O)O)C(=O)N[C@@H](CC(N)=O)C(=O)N[C@@H](CC(C)C)C(=O)N[C@@H](C)C(=O)N[C@@H](C)C(=O)N[C@@H](CCCNC(=N)N)C(=O)N[C@@H](CC(=O)O)C(=O)N[C@@H](Cc1ccccc1)C(=O)N[C@H](C(=O)N[C@@H](CC(N)=O)C(=O)N[C@@H](Cc1c[nH]c2ccccc12)C(=O)N[C@@H](CC(C)C)C(=O)N[C@H](C(=O)N[C@@H](CCC(N)=O)C(=O)N[C@H](C(=O)N[C@@H](CCCCN)C(N)=O)[C@@H](C)O)[C@@H](C)CC)[C@@H](C)CC)[C@@H](C)CC)[C@@H](C)O` (stereo not given in full), the EC50 is 8.9 nM in assay [1] and more than 1000 nM in assay [2]. For the same compound, the results for the Ratio EC50 in assay [3] and in assay [4] were 40 and more than 110, respectively. In addition, the result in assay [5] was inactive.
For `CCCCC(NC(=O)[C@H](CCC(=O)O)NC(=O)[C@@H](CC(=O)O)NC(=O)[C@H](CO)NC(=O)[C@H](Cc1ccccc1)NC(=O)[C@H](CO)NC(=O)CNC(=O)[C@H](CC(=O)O)NC(=O)CNC(=O)[C@@H](N)Cc1cnc[nH]1)C(=O)N[C@@H](CC(N)=O)C(=O)N[C@H](C(=O)N[C@H](C(=O)N[C@@H](CC(C)C)C(=O)N[C@@H](CC(=O)O)C(=O)N[C@@H](CC(N)=O)C(=O)N[C@@H](CC(C)C)C(=O)N[C@@H](C)C(=O)N[C@@H](C)C(=O)N[C@@H](CCCNC(=N)N)C(=O)N[C@@H](CC(=O)O)C(=O)N[C@@H](Cc1ccccc1)C(=O)N[C@H](C(=O)N[C@@H](CC(N)=O)C(=O)N[C@@H](Cc1c[nH]c2ccccc12)C(=O)N[C@@H](CC(C)C)C(=O)N[C@H](C(=O)N[C@@H](CCC(N)=O)C(=O)N[C@H](C(=O)N[C@@H](CCCCN)C(N)=O)[C@@H](C)O)[C@@H](C)CC)[C@@H](C)CC)[C@@H](C)CC)[C@@H](C)O` (stereo not given in full), in that order: 16 nM, more than 1000 nM, 73, more than 62 and “inactive”.
As to `CCCCC(NC(=O)[C@H](CCC(=O)O)NC(=O)[C@H](CC(=O)O)NC(=O)[C@H](CO)NC(=O)[C@H](Cc1ccccc1)NC(=O)[C@H](CO)NC(=O)CNC(=O)[C@H](CC(=O)O)NC(=O)CNC(=O)[C@@H](N)Cc1cnc[nH]1)C(=O)N[C@@H](CC(N)=O)C(=O)N[C@H](C(=O)N[C@H](C(=O)N[C@@H](CC(C)C)C(=O)N[C@@H](CC(=O)O)C(=O)N[C@@H](CC(N)=O)C(=O)N[C@@H](CC(C)C)C(=O)N[C@@H](C)C(=O)N[C@@H](C)C(=O)N[C@@H](CCCNC(=N)N)C(=O)N[C@H](CC(=O)O)C(=O)N[C@@H](Cc1ccccc1)C(=O)N[C@H](C(=O)N[C@@H](CC(N)=O)C(=O)N[C@@H](Cc1c[nH]c2ccccc12)C(=O)N[C@@H](CC(C)C)C(=O)N[C@H](C(=O)N[C@@H](CCC(N)=O)C(=O)N[C@H](C(=O)N[C@@H](CCCCN)C(N)=O)[C@@H](C)O)[C@@H](C)CC)[C@@H](C)CC)[C@@H](C)CC)[C@@H](C)O` (stereo not given in full), the concentration giving a half-maximal response (EC50) in assay [1] is 0.47 nM; in assay [2], more than 1000 nM. Besides, the Ratio EC50 in assay [3] was 2.1; in assay [4] it was more than 2100. In addition, in assay [5], the outcome was inactive.
With `CCCC[C@@H](NC(=O)[C@H](CCC(=O)O)NC(=O)[C@H](CC(=O)O)NC(=O)[C@H](CO)NC(=O)[C@H](Cc1ccccc1)NC(=O)[C@H](CO)NC(=O)CNC(=O)[C@H](CC(=O)O)NC(=O)CNC(=O)[C@@H](N)Cc1cnc[nH]1)C(=O)N[C@@H](CC(N)=O)C(=O)N[C@H](C(=O)N[C@H](C(=O)N[C@@H](CC(C)C)C(=O)N[C@@H](CC(=O)O)C(=O)N[C@@H](CC(N)=O)C(=O)N[C@@H](CC(C)C)C(=O)N[C@@H](C)C(=O)N[C@@H](C)C(=O)N[C@@H](CCCNC(=N)N)C(=O)N[C@@H](CC(=O)O)C(=O)N[C@@H](Cc1ccccc1)C(=O)N[C@H](C(=O)N[C@@H](CC(N)=O)C(=O)N[C@@H](Cc1c[nH]c2ccccc12)C(=O)N[C@@H](CC(C)C)C(=O)N[C@H](C(=O)N[C@@H](CCC(N)=O)C(=O)N[C@H](C(=O)N[C@@H](CCCCN)C(N)=O)[C@@H](C)O)[C@@H](C)CC)[C@@H](C)CC)[C@@H](C)CC)[C@@H](C)O`, the EC50 in assay [1] was 0.23 nM; in assay [2], more than 1000 nM. The Ratio EC50 in assay [3] is 1; in assay [4], more than 4300. The result in assay [5] was inactive.

(Values after ChEMBL document CHEMBL3822442, “Synthesis and Pharmacological Characterization of Novel Glucagon-like Peptide-2 (GLP-2) Analogues with Low Systemic Clearance” (J Med Chem, 2016).)
